In patent publication US6821530B2, “Polymer composite compositions” (Shriners Hospitals for Children, priority 2000, dated 2004):

Legend:
[1] = NDGA quantitation in culture medium by capillary zone electrophoresis; format: physicochemical; set-up: Initial NDGA remaining in medium: dose or concentration left out as unconfirmed
Procedure: NDGA Quantitation: The amount of NDGA in the buffers, eluents, and medium was determined by capillary zone electrophoresis on a Dionex CES. A sodium borate buffer (10 mM sodium borate, 50 mM boric acid, pH 8.0) was chosen for electrophoresis because it was known that borate efficiently complexes with catechols and increases absorptivity (Waite et al., Methods. Enzymol. 107:397-413, 1984). Samples were diluted in electrophoresis buffer, loaded by electrophoresis (5000 V for 5 seconds) onto a […] inner diameter×80 cm long hollow glass capillary, and electrophoresed at 20 kV. NDGA was detected by absorbance at 280 nm. The amount of NDGA in the experimental samples was calculated from the peak area following calibration of the NDGA standards dissolved directly in capillary zone electrophoresis (CZE) buffer. Based on capillary zone electrophoretic analysis of NDGA-containing medium, NDGA disappears from the medium with time in culture, even in the absence of cells (FIGS. 13A and 13B). NDGA was dissolved in DMSO to 10 mM and then diluted 100-fold into the medium. For the zero time point, the medium containing NDGA was diluted 3-fold with CZE buffer and electrophoresed immediately. For the 24 hour time point, the medium was incubated at 37° C. in a cell culture incubator before diluting 3-fold and electrophoresing. […] The fate of the NDGA is unclear. Its disappearance may involve oxidation of the catechols to quinones, since the medium developed a brown pigment similar to that formed from chemically oxidized NDGA. In the medium containing […] NDGA, less than 10% of the initial NDGA remained after 24 hours, decreasing the NDGA concentration to below […] (FIGS. 13A and 13B).

[2] = system: confluent tendon fibroblasts; assay: Cytotoxicity test of NDGA and its oxidation products, CYQUANT viable cell number; format: cell-based, calf
Procedure: (§1) Cell cultures: Digital extensor tendons were excised fresh from new born calves euthanized at a local abattoir and held in Dulbecco's Phosphate Buffered Saline during dissection and preparation for culture. Tendons were minced, weighed, and then digested with 0.1% w/v testicular hyaluronidase in 0.15 M NaCl, 0.1 M NaH2PO4, pH 7.0 (5 ml/g wet tissue weight) at 37° C. for 45 minutes. The hyaluronidase wash was decanted and the tissue was next digested with 5 mg/g tissue of Pronase E and 5 mg/g tissue of collagenase in 4% bovine serum albumen in DMEM/Ham F12 medium at 37° C. overnight. Cells were isolated from the tissue residue and washed with PBS. Cells were dispersed in DMEM/Ham F12 medium, counted, and plated on 24-well culture plates. Cells were cultured in DMEM/Ham F12 containing 10% FBS unless otherwise noted.
Cytotoxicity tests: The potential toxicity of NDGA, its reaction products, and the NDGA cross-linked fibers was determined using confluent tendon fibroblasts. NDGA was tested by dissolving NDGA in DMSO, then directly diluting in the medium containing 10% FBS to the desired final concentrations. […] Fibroblasts were cultured in the presence of NDGA or its oxidation products for 24 hours, and then the number of viable cells was measured with the CYQUANT® Cell Proliferation Assay Kit (Molecular Probes).

[3] = system: primary tendon fibroblast cultures; assay: Fibroblast replication after single NDGA exposure; format: cell-based, calf
Procedure: as §1
Effect of NDGA on fibroblast replication. To determine whether NDGA or oxidation products derived from the cross-linking reaction influenced cell replication, primary tendon fibroblast cultures were treated with a single exposure at the start of culture with concentrations of NDGA from […]. Fibroblasts were subsequently cultured for 1, 2, and 4 weeks. At each time point, the number of viable cells in each treatment group was determined. The lower NDGA concentrations, […], had no effect on cell replication (FIG. 15).

[4] = medium containing, after 24 hours

- NDGA vanished from medium ([1]; 10 mM in DMSO diluted 100-fold into medium, 37° C., no cells, by 24 hours): over 95%
- Initial NDGA remaining in medium [1, 4]: less than 10%
- NDGA concentration in medium [1, 4]: below 100 mM
- Effect on cell replication ([3]; 1 and 10 mM NDGA, culture 1, 2, 4 weeks): no effect
- Effect on cell replication ([3]; one hundred millimolar NDGA, after first week rate similar to control): temporary delay in replication
SMILES: CC(Cc1ccc(O)c(O)c1)C(C)Cc1ccc(O)c(O)c1 (centres unmarked) [NDGA, Nordihydroguaiaretic acid]
- Reduction in viable cells ([2]; 1000 mM NDGA, after 24 hr): 80%
- Effect on cell viability over that of DMSO alone ([2]; NDGA at 1, 10, and 100 mM, 24 hours of exposure): little effect
- Effect on cell replication ([3]; highest NDGA concentration): toxic to the cells
